Assay results: EPA's ToxValDB 9.5 (doi:10.2903/j.efsa.2011.2419)

Tests used:
Anas platyrhynchos = conditions: short-term; oral; feed; mortality
Rattus norvegicus = conditions: inhalation
Colinus virginianus = conditions: acute, oral, mortality; for LC50: diet
[1] = reproduction developmental, mortality

| Structure (SMILES) | LC50 (Anas platyrhynchos) [mg/kg] | NOAEL (Rattus norvegicus; chronic, duration: 2 years) [mg/kg-day] | NOAEL (Rattus norvegicus; [1]) [mg/kg-day] | NOAEL (Rattus norvegicus; subchronic, duration: 90 days) [mg/kg-day] | LC50 (Colinus virginianus) [mg/kg] | LD50 (Colinus virginianus) [mg/kg-day] |
| --- | --- | --- | --- | --- | --- | --- |
| P [Phosphine] | 762 | 1.1 | 1.9 | 1.1 | 124 | < 9.2 |
| [Ca+2].[Ca+2].[Ca+2].[P-3].[P-3] [Tricalcium diphosphide] | 2040 | 1.1 | 1.9 | 1.1 | 330 | < 24.7 |
